{
  "source": "patent US8946142B2",
  "about": "“Beta-arrestin effectors and compositions and methods of use thereof” (Trevena, Inc., priority 2012, dated 2015)",
  "type_in_all_cases": "cell-based",
  "key": {"[1]": {"biological_target": "T1, human AT1R (Homo sapiens, UniProt P30556)", "T1 sequence (P30556 1-359)": "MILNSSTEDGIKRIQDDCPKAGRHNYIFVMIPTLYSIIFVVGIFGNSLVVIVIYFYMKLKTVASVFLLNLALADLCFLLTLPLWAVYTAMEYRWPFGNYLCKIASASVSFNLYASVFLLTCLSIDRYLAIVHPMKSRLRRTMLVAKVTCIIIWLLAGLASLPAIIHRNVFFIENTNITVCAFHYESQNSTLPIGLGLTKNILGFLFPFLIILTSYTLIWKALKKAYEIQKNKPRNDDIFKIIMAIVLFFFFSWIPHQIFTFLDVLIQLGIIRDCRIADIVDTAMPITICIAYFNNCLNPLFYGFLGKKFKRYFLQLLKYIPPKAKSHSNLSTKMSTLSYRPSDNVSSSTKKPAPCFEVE", "experiment": "IP1 accumulation assay (IP1 G-protein assay), human AT1R", "conditions": "for Emax: read-out: Span (relative to hAngII)"}, "[2]": {"biological_target": "T2, rat AT1aR (Rattus norvegicus, UniProt P25095)", "T2 sequence (P25095 1-359)": "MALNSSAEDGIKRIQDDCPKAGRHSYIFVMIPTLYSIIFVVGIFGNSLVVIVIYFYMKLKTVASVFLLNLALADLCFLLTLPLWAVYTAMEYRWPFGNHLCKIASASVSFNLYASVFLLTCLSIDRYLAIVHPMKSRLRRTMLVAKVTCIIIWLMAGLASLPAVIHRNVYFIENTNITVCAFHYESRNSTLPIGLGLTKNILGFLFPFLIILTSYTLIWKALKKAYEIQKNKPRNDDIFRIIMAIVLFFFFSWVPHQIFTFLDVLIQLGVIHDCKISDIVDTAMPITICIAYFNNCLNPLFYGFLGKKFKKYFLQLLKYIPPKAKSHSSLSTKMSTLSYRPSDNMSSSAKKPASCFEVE", "experiment": "IP1 accumulation assay (IP1 G-protein assay), rat AT1aR", "conditions": "for Emax: read-out: Span (relative to hAngII)"}, "[3]": {"biological_target": "T1, human AT1R", "experiment": "beta-arrestin2 recruitment assay (PathHunter), human AT1R", "conditions": "for Emax: 1 h, read-out: Span (relative to hAngII)", "how_it_was_run": "(§1)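 Luminescence, in arbitrary units, read after 60 min room-temperature detection reflects β-arrestin-2 recruitment to human AT1R or rat AT1aR stably expressed in PathHunter HEK293 clones. Cells were exposed to peptides from 1 pM to 100 μM final in HEPES-buffered HBSS for 60 min at 37 °C.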"}, "[4]": {"biological_target": "T2, rat AT1aR", "experiment": "beta-arrestin2 recruitment assay (PathHunter), rat AT1aR", "conditions": "for Emax: 1 h, read-out: Span (relative to hAngII)", "how_it_was_run": "as §1"}},
  "note": "Where a SMILES comes first, the peptide text is derived from it. [ ]: non-standard residue; d: D form. Ac6c = NC1(C(=O)O)CCCCC1; Ac5c = NC1(C(=O)O)CCCC1; Sar = CNCC(=O)O",
  "data": [
    {"smiles": "CNCC(=O)N[C@@H](CCCNC(=N)N)C(=O)N[C@H](C(=O)N[C@@H](Cc1ccc(O)cc1)C(=O)NC1(C(=O)N[C@@H](Cc2c[nH]cn2)C(=O)N2CCC[C@H]2C(=O)N[C@@H](Cc2ccccc2)C(=O)O)CCCC1)C(C)C", "note": "[SEQ ID NO: 24, Sar-Arg-Val-Tyr-cyPen-His-Pro-Phe] (H-[Sar]RVY[Ac5c]HPF-OH)", "values": [
      {"measurement": "EC50", "setting": "[1]; read-out: EC50", "result": "< 1.3", "unit": "nM"},
      {"measurement": "Emax", "setting": "[1]", "result": "> 103", "unit": "%"},
      {"measurement": "EC50", "setting": "[1]; read-out: pEC50 (converted)", "result": "> 0.631", "unit": "nM"},
      {"measurement": "EC50", "setting": "[2]; read-out: EC50", "result": "> 0.6", "unit": "nM"},
      {"measurement": "Emax", "setting": "[2]", "result": "< 104", "unit": "%"},
      {"measurement": "EC50", "setting": "[2]; read-out: pEC50 (converted)", "result": "> 0.631", "unit": "nM"},
      {"measurement": "Emax", "setting": "[3]", "result": "> 101", "unit": "%"},
      {"measurement": "EC50", "setting": "[3]; read-out: EC50", "result": "> 3.2", "unit": "nM"},
      {"measurement": "EC50", "setting": "[3]; read-out: pEC50 (converted)", "result": "> 3.16", "unit": "nM"},
      {"measurement": "Emax", "setting": "[4]", "result": "< 105", "unit": "%"},
      {"measurement": "EC50", "setting": "[4]; read-out: EC50", "result": "> 3.2", "unit": "nM"},
      {"measurement": "EC50", "setting": "[4]; read-out: pEC50 (converted)", "result": "> 3.16", "unit": "nM"}
    ]},
    {"smiles": "CNCC(=O)N[C@@H](CCCNC(=N)N)C(=O)N[C@H](C(=O)N[C@@H](Cc1ccc(O)cc1)C(=O)NC1(C(=O)N[C@@H](Cc2c[nH]cn2)C(=O)N2CCC[C@H]2C(=O)N[C@@H](CCSC)C(=O)O)CCCCC1)C(C)C", "note": "[SEQ ID NO: 16, Sar-Arg-Val-Tyr-cyHex-His-Pro-Met] (H-[Sar]RVY[Ac6c]HPM-OH)", "values": [
      {"measurement": "EC50", "setting": "[1]; read-out: EC50", "result": "> 1.3", "unit": "nM"},
      {"measurement": "Emax", "setting": "[1]", "result": "< 103", "unit": "%"},
      {"measurement": "EC50", "setting": "[1]; read-out: pEC50 (converted)", "result": "> 0.631", "unit": "nM"},
      {"measurement": "EC50", "setting": "[2]; read-out: EC50", "result": "> 0.6", "unit": "nM"},
      {"measurement": "Emax", "setting": "[2]", "result": "< 104", "unit": "%"},
      {"measurement": "EC50", "setting": "[2]; read-out: pEC50 (converted)", "result": "> 0.631", "unit": "nM"},
      {"measurement": "Emax", "setting": "[3]", "result": "< 101", "unit": "%"},
      {"measurement": "EC50", "setting": "[3]; read-out: EC50", "result": "> 3.2", "unit": "nM"},
      {"measurement": "EC50", "setting": "[3]; read-out: pEC50 (converted)", "result": "> 3.16", "unit": "nM"},
      {"measurement": "Emax", "setting": "[4]", "result": "< 105", "unit": "%"},
      {"measurement": "EC50", "setting": "[4]; read-out: EC50", "result": "> 3.2", "unit": "nM"},
      {"measurement": "EC50", "setting": "[4]; read-out: pEC50 (converted)", "result": "> 3.16", "unit": "nM"}
    ]},
    {"smiles": "CNCC(=O)N[C@@H](CCCNC(=N)N)C(=O)N[C@H](C(=O)N[C@@H](Cc1ccc(O)cc1)C(=O)NC1(C(=O)N[C@@H](Cc2c[nH]cn2)C(=O)N2CCC[C@H]2C(=O)N[C@H](C(=O)O)C(C)C)CCCCC1)C(C)C", "note": "[SEQ ID NO: 13, Sar-Arg-Val-Tyr-cyHex-His-Pro-Val] (H-[Sar]RVY[Ac6c]HPV-OH)", "values": [
      {"measurement": "EC50", "setting": "[1]; read-out: EC50", "result": "> 1.3", "unit": "nM"},
      {"measurement": "EC50", "setting": "[1]; read-out: pEC50 (converted)", "result": "> 0.631", "unit": "nM"},
      {"measurement": "EC50", "setting": "[2]; read-out: EC50", "result": "> 0.6", "unit": "nM"},
      {"measurement": "EC50", "setting": "[2]; read-out: pEC50 (converted)", "result": "> 0.631", "unit": "nM"},
      {"measurement": "Emax", "setting": "[3]", "result": 103, "unit": "%"},
      {"measurement": "EC50", "setting": "[3]; read-out: EC50", "result": "> 3.2", "unit": "nM"},
      {"measurement": "EC50", "setting": "[3]; read-out: pEC50 (converted)", "result": "> 3.16", "unit": "nM"},
      {"measurement": "Emax", "setting": "[4]", "result": "< 105", "unit": "%"},
      {"measurement": "EC50", "setting": "[4]; read-out: EC50", "result": "> 3.2", "unit": "nM"},
      {"measurement": "EC50", "setting": "[4]; read-out: pEC50 (converted)", "result": "> 3.16", "unit": "nM"}
    ]},
    {"smiles": "CNCC(=O)N[C@@H](CCCNC(=N)N)C(=O)N[C@H](C(=O)N[C@@H](Cc1ccc(O)cc1)C(=O)NC1(C(=O)N[C@@H](Cc2c[nH]cn2)C(=O)N2CCC[C@H]2C(=O)N[C@@H](C)C(=O)O)CCCCC1)C(C)C", "note": "[SEQ ID NO: 2, Sar-Arg-Val-Tyr-cyHex-His-Pro-Ala]", "values": [
      {"measurement": "EC50", "setting": "[1]; read-out: EC50", "result": 10000, "unit": "nM"},
      {"measurement": "Emax", "setting": "[1]", "result": "< 103", "unit": "%"},
      {"measurement": "EC50", "setting": "[1]; read-out: pEC50 (converted)", "result": "> 0.631", "unit": "nM"},
      {"measurement": "EC50", "setting": "[2]; read-out: EC50", "result": "> 0.6", "unit": "nM"},
      {"measurement": "Emax", "setting": "[3]", "result": "< 101", "unit": "%"},
      {"measurement": "EC50", "setting": "[3]; read-out: EC50", "result": "> 3.2", "unit": "nM"},
      {"measurement": "Emax", "setting": "[4]", "result": "< 105", "unit": "%"},
      {"measurement": "EC50", "setting": "[4]; read-out: EC50", "result": "> 3.2", "unit": "nM"}
    ]},
    {"smiles": "CNCC(=O)N[C@@H](CCCNC(=N)N)C(=O)N[C@H](C(=O)N[C@@H](Cc1ccc(O)cc1)C(=O)N1CCC[C@H]1C(=O)N[C@@H](Cc1c[nH]cn1)C(=O)N1CCC[C@H]1C(=O)N[C@H](C(=O)O)[C@@H](C)O)C(C)C", "note": "[SEQ ID NO: 7, Sar-Arg-Val-Tyr-Pro-His-Pro-Thr] (H-[Sar]RVYPHPT-OH)", "values": [
      {"measurement": "EC50", "setting": "[1]; read-out: EC50", "result": "> 10000", "unit": "nM"},
      {"measurement": "EC50", "setting": "[1]; read-out: pEC50 (converted)", "result": "> 0.631", "unit": "nM"},
      {"measurement": "EC50", "setting": "[2]; read-out: EC50", "result": "> 0.6", "unit": "nM"},
      {"measurement": "EC50", "setting": "[2]; read-out: pEC50 (converted)", "result": "> 0.631", "unit": "nM"},
      {"measurement": "Emax", "setting": "[3]", "result": "< 101", "unit": "%"},
      {"measurement": "EC50", "setting": "[3]; read-out: EC50", "result": "> 3.2", "unit": "nM"},
      {"measurement": "EC50", "setting": "[3]; read-out: pEC50 (converted)", "result": "> 3.16", "unit": "nM"},
      {"measurement": "Emax", "setting": "[4]", "result": "< 105", "unit": "%"},
      {"measurement": "EC50", "setting": "[4]; read-out: EC50", "result": "> 3.2", "unit": "nM"},
      {"measurement": "EC50", "setting": "[4]; read-out: pEC50 (converted)", "result": "> 3.16", "unit": "nM"}
    ]}
  ]
}
